Test results taken from the supplement of paper PMC10307832.

These cell lines were tested with Cc1ccc(NC(=O)c2ccc(CN3CCN(C)CC3)cc2)cc1Nc1nc(-c2cccnc2)cs1 [Masitinib] + Cc1cc(Nc2cc(N3CCN(C)CC3)nc(Sc3ccc(NC(=O)C4CC4)cc3)n2)n[nH]1 [Tozasertib] (partner 0.1 µM) (assay: relative viability (nuclei count vs DMSO), 5 days (fraction); higher = more cells survive). Conditions: first compound 0.01 µM.
Outline: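 The day after seeding in 1536-well plates, lung cancer cell lines were treated by pin tool with a single drug, or with a fixed anchor-drug dose together with five library-drug doses (not always all listed) in √10 steps. After 5 days, a combined fix-and-stain solution (final 0.05% Triton X-100, 1% formaldehyde, 1 ug/ml Hoechst) was added. Nuclei counted on 4× images gave relative viability as treated counts over vehicle counts, reported as the median of duplicate plates.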

| Cell Line | relative viability |
| --- | --- |
| NCI-H441 | 0.67 |
| NCI-H2023 | 0.327 |
| NCI-H460 | 0.288 |
| NCI-H727 | 0.691 |
| NCI-H520 | 0.368 |
| NCI-H2405 | 0.759 |
| SW 1573 | 0.133 |
| NCI-H1395 | 0.713 |
| 201T | 0.711 |
| NCI-H1975 | 0.764 |
| HCC-827 | 0.378 |
| NCI-H2347 | 0.379 |
| NCI-H1355 | 0.534 |
| NCI-H650 | 0.642 |
| CAL-12T | 0.303 |
| EPLC-272H | 0.342 |
| NCI-H23 | 0.336 |
| NCI-H1437 | 0.399 |
| NCI-H322M | 0.452 |
| NCI-H2085 | 0.691 |
| HCC-15 | 0.491 |
| PC-3 [JPC-3] | 0.879 |
| LC-2-ad | 0.426 |
| NCI-H1650 | 0.346 |
| NCI-H2170 | 0.778 |

Same assay, conditions: first compound 0.03162 µM

| Cell Line | relative viability |
| --- | --- |
| HARA | 0.352 |
| NCI-H441 | 0.571 |
| LCLC-97TM1 | 0.38 |
| NCI-H2023 | 0.356 |
| A-427 | 0.214 |
| NCI-H460 | 0.4 |
| NCI-H727 | 0.597 |
| NCI-H1755 | 0.573 |
| NCI-H520 | 0.476 |
| NCI-H2405 | 0.729 |
| SW 1573 | 0.144 |
| NCI-H1395 | 0.678 |
| 201T | 1.01 |
| NCI-H1975 | 0.609 |
| HCC-827 | 0.444 |
| NCI-H2347 | 0.457 |
| NCI-H1355 | 0.469 |

| Cell Line | relative viability |
| --- | --- |
| NCI-H650 | 0.732 |
| CAL-12T | 0.282 |
| NCI-H1666 | 0.495 |
| EPLC-272H | 0.352 |
| NCI-H23 | 0.313 |
| NCI-H1915 | 0.453 |
| NCI-H1437 | 0.454 |
| NCI-H322M | 0.513 |
| NCI-H2085 | 0.779 |
| HCC-15 | 0.426 |
| NCI-H1944 | 0.214 |
| PC-3 [JPC-3] | 0.782 |
| EKVX | 0.409 |
| LC-2-ad | 0.443 |
| NCI-H1650 | 0.329 |
| NCI-H2170 | 0.685 |

Same assay, conditions: first compound 0.1 µM

| Cell Line | relative viability |
| --- | --- |
| HARA | 0.126 |
| NCI-H441 | 0.637 |
| LCLC-97TM1 | 0.261 |
| NCI-H2023 | 0.279 |
| NCI-H460 | 0.313 |
| NCI-H727 | 0.69 |
| NCI-H1755 | 0.57 |
| NCI-H520 | 0.566 |
| NCI-H2405 | 0.725 |
| SW 1573 | 0.213 |
| NCI-H1395 | 0.828 |
| 201T | 0.85 |
| NCI-H1975 | 0.609 |
| HCC-827 | 0.444 |
| NCI-H2347 | 0.536 |
| NCI-H1355 | 0.561 |
| NCI-H650 | 0.717 |
| CAL-12T | 0.307 |
| NCI-H1666 | 0.586 |
| EPLC-272H | 0.361 |
| NCI-H23 | 0.4 |
